Results published in patent publication US20230190731A1, “FORMULATION COMPRISING HIF PROLYL HYDROXYLASE INHIBITORS” (ZYDUS LIFESCIENCES LIMITED, priority 2020, published 2023).

Experiments:
[1] = Solubility of compounds of formula (Ia) in various media; format: physicochemical
[2] = system: hypoxia inducible factor (HIF) prolyl hydroxylase; assay: Inhibition of hypoxia inducible factor (HIF) prolyl hydroxylase (statement only); format: biochemical

solubility ([1]; in 0.1 N HCL): insoluble
solubility ([1]; in N,N-dimethyl formamide): freely soluble
solubility ([1]; in alkaline aqueous condition): soluble
solubility ([1]; in water): partially soluble
inhibitor of HIF prolyl hydroxylase [2]: potent inhibitor
SMILES: O=C(O)CNC(=O)c1c(O)c2ccccc2n(OCC2CC2)c1=O [Compound (Ia)]
